# Data: PMC11811631 (RSC Chemical Biology, 2025)
# Biological target: ScoE (Streptomyces coeruleorubidus, UniProt A0A3B6UEU3)
# Experiment: LC-MS of pyrazole product […] after tetrazine derivatization
# Assay type: biochemical
Structure (SMILES),LC-MS of pyrazole product 8 after tetrazine derivatization (accepted chain length),LC-MS of pyrazole product 8 after tetrazine derivatization (preferred chain length)
"CCCC(CC(=O)O)NCC(=O)O (centres unmarked) [6 (n = 3), 6 with a propyl group]","substrates that have a short alkyl chain, e.g., a methyl and propyl group",
"CC(CC(=O)O)NCC(=O)O (centres unmarked) [6 (n = 1), methyl-6]",,"substrates that have a short alkyl chain, e.g., a methyl and propyl group"
